The text below walks through data of PMC8724216, “Biochemical and structural characterization of beta-carbonic anhydrase from the parasite Trichomonas vaginalis” (Journal of Molecular Medicine (Berlin, Germany), 2021).

The structures appear in SMILES notation. Bounds are passed on as bounds.

One experiment addresses T1, TvaCA2 (Trichomonas vaginalis, UniProt A2DLG4).
T1 construct: gene TVAG_268150; recombinant in E. coli BL21 Star (DE3), pBVboostFG; 6xHis-tag removed by thrombin; 185 residues; homodimer, zinc
T1 sequence (A2DLG4 1-184): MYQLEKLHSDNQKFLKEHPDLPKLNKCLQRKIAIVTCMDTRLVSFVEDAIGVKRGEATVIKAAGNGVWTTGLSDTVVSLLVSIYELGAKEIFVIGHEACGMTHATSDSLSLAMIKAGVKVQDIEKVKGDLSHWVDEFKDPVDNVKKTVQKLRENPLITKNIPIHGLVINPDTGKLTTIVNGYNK
The experiment is described as follows: stopped-flow CO2 hydration, phenol red. Type of experiment: biochemical. As to conditions: read-out: TvaCA2 β.
For `CCN[C@H]1CN(CCCOC)S(=O)(=O)c2sc(S(N)(=O)=O)cc21` [BRZ], the Ki was determined as 3.23 µM.

Regarding `NS(=O)(=O)c1nnc(NS(=O)(=O)c2ccccc2)s1` [BZA], the Ki is 4.21 µM.

Take `Cc1ccc(-c2cc(C(F)(F)F)nn2-c2ccc(S(N)(=O)=O)cc2)cc1` [CLX, celecoxib]: the Ki was over 10 µM.

Consider `NS(=O)(=O)c1cc2c(cc1Cl)NCNS2(=O)=O` [HCT], for which the Ki came to 3.06 µM.

With `NS(=O)(=O)c1ccc(S(=O)(=O)Nc2cccc3c(Cl)c[nH]c23)cc1` [IND, indisulam], the Ki was over 10 µM.

As for `CC(=O)N=c1sc(S(N)(=O)=O)nn1C` [MZA, methazolamide], the Ki was 0.39 µM.

With `O=C1NS(=O)(=O)c2ccccc21` [SAC, saccharin], the Ki was over 10 µM.

Turning to `CCN1CCCC1CNC(=O)c1cc(S(N)(=O)=O)ccc1OC` (centres unmarked) [SLP, sulpride], the Ki was over 10 µM.

For the compound `NS(=O)(=O)c1ccc(N2CCCCS2(=O)=O)cc1` [SLT, sulthiame], the Ki was over 10 µM.

Consider `CC1(C)O[C@@H]2[C@@H](CO[C@@]3(COS(N)(=O)=O)OC(C)(C)O[C@@H]23)O1` [TPM, topiramate], for which the Ki was over 10 µM.

As for `Cc1onc(-c2ccccc2)c1-c1ccc(S(N)(=O)=O)cc1` [VLX, valdecoxib], the Ki was over 10 µM.

As for `NS(=O)(=O)Cc1noc2ccccc12` [ZNS, zonisamide], the Ki is over 10 µM.

`NS(=O)(=O)c1cccc(S(N)(=O)=O)c1` [compound 3, 1,3-disulfamoyl benzene]: the Ki worked out at 0.446 µM.

For `Nc1ccc(S(N)(=O)=O)cc1Br` [compound 9, 3-bromo-4-amino-benzenesulfonamide], the Ki is over 10 µM.

In the case of `Nc1cc(C(F)(F)F)c(S(N)(=O)=O)cc1S(N)(=O)=O` [compound 11, 4-amino-6-trifluoromethyl-benzene-1,3-disulfonamide], the Ki is 0.44 µM.

With `Nc1cc(Cl)c(S(N)(=O)=O)cc1S(N)(=O)=O` [compound 12, 4-amino-6-chloro-1,3-benzenedisulfonamide], the Ki worked out at 0.382 µM.

With `Nc1nnc(S(N)(=O)=O)s1` [compound 13, 5-amino-1,3,4-thiadizole-2-sulfonamide], the Ki was 1.15 µM.

The target of the next experiment is T1, TvaCA2. The experiment is described as follows: biochemical. Also on record: stopped-flow CO2 hydration, phenol red absorbance at 557 nm, 20 °C, pH 7.5, 15 min preincubation. As to conditions: inhibitor; read-out: TvaCA2 β. How it is done: CA-catalyzed CO2 hydration activity was investigated with an Applied Photophysics stopped-flow instrument at 20 °C [20]. Twenty millimolar Hepes was used as buffer (pH 7.5) with 20 mM Na2SO4 (for maintaining a constant ionic strength). Phenol red of 0.2 mM was used as a pH indicator, working at a maximum absorbance of 557 nm. The initial rates of the CA-catalyzed CO2 hydration reaction were followed for 10–100 s. CO2 concentrations of 1.7–17 mM were used to determine the kinetic parameters and inhibition constants. For each inhibitor, the initial velocity was determined by using ≥ 6 traces of the initial 5–10% of the reaction. The uncatalyzed rates were determined similarly and subtracted from the total observed rates. DSMO was used at 5% to make the stock solution, from which 0.1 mM inhibitor solutions were prepared in dH2O. Subsequently, dilutions up to 0.01 nM were prepared with dH2O. Inhibitor and enzyme solutions were preincubated together (15 min, room temperature) prior to the assay to allow the formation of the enzyme–inhibitor complex. The inhibition constants were obtained by nonlinear least-squares methods using PRISM 3 and represent the means from ≥ 3 different measurements. The gene sequence of the second β-CA of T. vaginalis (TvaCA2) was retrieved from Universal Protein Resource Database UniProt (protein entry A2DLG4). An Escherichia coli expression system with a multipromoter vector, pBVboostFG (Online Resource 1), was used for the expression of TvaCA2. Gene synthesis and subcloning were performed by GeneArt (Thermo Fisher Scientific, Waltham, USA). The cells (OneShot® BL21 Star™ (DE3) Chemically Competent Cells, #C601003, Thermo Fisher Scientific, Waltham, USA) were cultured in an orbital shaker (200 rpm, 37 °C) in Luria–Bertani (LB) medium supplemented with 10 mg/mL gentamicin (1:1000). The cells were harvested via centrifugation (4 °C, 15 min, 5000 × g) after reaching an optical density of 0.4–0.6, and they were mechanically disrupted with an EmulsiFlex-C3 homogenizer (AVESTIN, Ottawa, Canada) in 50 mM Na2HPO4, 0.5 M NaCl, and 50 mM imidazole binding buffer (BB; pH 8.0), and centrifuged (13,000 × g, 15 min, 4 °C). […] After incubation, the resin was packed into a chromatography column with an EMD Millipore™ vacuum filtering flask (#XX1004705, Merck, Darmstad, Germany). The protein was eluted with 50 mM Na2HPO4, 0.5 M NaCl, and 350 mM imidazole (pH 7.0). The 6xHis-tag was removed by thrombin (#RECOMT, Sigma-Aldrich, St. Louis, USA) according to the Thrombin CleanCleave™ Kit manual (Sigma-Aldrich, St. Louis, USA) followed by Ni^2+-NTA affinity chromatography. NanoDrop One (Thermo Fisher Scientific, Waltham, USA) was used to determine the protein yield, and the quality of the purified protein was analyzed by SDS-PAGE (sodium dodecyl sulfate–polyacrylamide gel electrophoresis) using a 12% polyacrylamide gel visualized with PageBlue Protein staining solution (Thermo Fisher Scientific, #24,620, Waltham, USA). The obtained polypeptide bands of the SDS-PAGE gel were identified using tandem mass spectrometry (MS/MS; Meilahti Clinical Proteomics Core Facility, […]
Regarding `Nc1cccc(S(N)(=O)=O)c1` [compound 01], the Ki was 3.93 µM.

Consider `NS(=O)(=O)c1cc(Cl)cc(Cl)c1O` [compound 10], for which the Ki was over 10 µM.

Regarding `Nc1nccc(Nc2ccc(S(N)(=O)=O)cc2)n1` [compound 19], the Ki is over 10 µM.

As for `NS(=O)(=O)c1ccc(CCNS(=O)(=O)c2ccc([N+](=O)[O-])cc2CO)cc1` [compound 21], the Ki is 4.16 µM.

Still in this experiment, the particulars now being: read-out: TvaCA2 β.
On to `Nc1ccc(S(N)(=O)=O)cc1` [compound 02], for which the Ki worked out at 1.29 µM.

Regarding `Cc1ccc(S(N)(=O)=O)cc1` [compound 04], the Ki is 1.29 µM.

With `NCc1ccc(S(N)(=O)=O)cc1` [compound 05], the Ki stood at 4.19 µM.

Turning to `NCCc1ccc(S(N)(=O)=O)cc1` [compound 06], the Ki was determined as 4.23 µM.

Turning to `Nc1ccc(S(N)(=O)=O)cc1F` [compound 07], the Ki turned out to be 1.29 µM.

For `Nc1ccc(S(N)(=O)=O)cc1Cl` [compound 08], the Ki was found to be 3.95 µM.

On to `Cn1nc(S(N)(=O)=O)sc1=N` [compound 14], for which the Ki amounted to 1.61 µM.

On to `NS(=O)(=O)c1ccc(C(=O)O)cc1` [compound 18], for which the Ki was found to be 1.63 µM.

As to `Nc1ccc(S(=O)(=O)Nc2nnc(S(N)(=O)=O)s2)cc1` [compound 20], the Ki turned out to be 1.04 µM.

As for `Nc1ccc(S(=O)(=O)Nc2ccc(S(N)(=O)=O)cc2)cc1` [compound 22], the Ki came to 3.9 µM.

Turning to `Nc1ccc(S(=O)(=O)NCc2ccc(S(N)(=O)=O)cc2)cc1` [compound 23], the Ki worked out at 2.26 µM.
